One test concerns P19 cells. Briefly: Neuronal differentiation in P19 cell monolayers (morphology, immunostaining with neuronal markers). The class given is cell-based. The conditions noted are these: 1 μM.
The subject of test [1] is GSK-3β/β-catenin signaling. Briefly: GSK-3β/β-catenin-dependent signaling, TCF/LEF (pTOPFLASH) luciferase reporter in P19 cells. The class given is cell-based. As to conditions: 10 μM, 36 hours. The method, then: P19 cells are co-transfected with pTOPFLASH (containing four consensus LEF-1/TCF-1 binding sites, a minimal promoter and a firefly luciferase reporter) and renilla luciferase control reporter (Promega). […] Thirty-six hours later, cells are lysed and protein extracts are assayed for luciferase activity. The fold induction offirefly luciferase activity is normalized to renilla luciferase activity. The normalized activities are averaged over three experiments.

A further test has as its target c-Abl (Homo sapiens, UniProt P00519). Briefly: Kinase inhibition c-Abl. The class given is biochemical.
For the next test, the target named is HER-1 (Homo sapiens, UniProt P00533). Briefly: Kinase inhibition HER-1. It is filed as biochemical.
For another test, the target named is HER-2 (Homo sapiens, UniProt P04626). Briefly: Kinase inhibition HER-2. The class given is biochemical.
HER-2, sequence (P04626 23-1255, species assumed): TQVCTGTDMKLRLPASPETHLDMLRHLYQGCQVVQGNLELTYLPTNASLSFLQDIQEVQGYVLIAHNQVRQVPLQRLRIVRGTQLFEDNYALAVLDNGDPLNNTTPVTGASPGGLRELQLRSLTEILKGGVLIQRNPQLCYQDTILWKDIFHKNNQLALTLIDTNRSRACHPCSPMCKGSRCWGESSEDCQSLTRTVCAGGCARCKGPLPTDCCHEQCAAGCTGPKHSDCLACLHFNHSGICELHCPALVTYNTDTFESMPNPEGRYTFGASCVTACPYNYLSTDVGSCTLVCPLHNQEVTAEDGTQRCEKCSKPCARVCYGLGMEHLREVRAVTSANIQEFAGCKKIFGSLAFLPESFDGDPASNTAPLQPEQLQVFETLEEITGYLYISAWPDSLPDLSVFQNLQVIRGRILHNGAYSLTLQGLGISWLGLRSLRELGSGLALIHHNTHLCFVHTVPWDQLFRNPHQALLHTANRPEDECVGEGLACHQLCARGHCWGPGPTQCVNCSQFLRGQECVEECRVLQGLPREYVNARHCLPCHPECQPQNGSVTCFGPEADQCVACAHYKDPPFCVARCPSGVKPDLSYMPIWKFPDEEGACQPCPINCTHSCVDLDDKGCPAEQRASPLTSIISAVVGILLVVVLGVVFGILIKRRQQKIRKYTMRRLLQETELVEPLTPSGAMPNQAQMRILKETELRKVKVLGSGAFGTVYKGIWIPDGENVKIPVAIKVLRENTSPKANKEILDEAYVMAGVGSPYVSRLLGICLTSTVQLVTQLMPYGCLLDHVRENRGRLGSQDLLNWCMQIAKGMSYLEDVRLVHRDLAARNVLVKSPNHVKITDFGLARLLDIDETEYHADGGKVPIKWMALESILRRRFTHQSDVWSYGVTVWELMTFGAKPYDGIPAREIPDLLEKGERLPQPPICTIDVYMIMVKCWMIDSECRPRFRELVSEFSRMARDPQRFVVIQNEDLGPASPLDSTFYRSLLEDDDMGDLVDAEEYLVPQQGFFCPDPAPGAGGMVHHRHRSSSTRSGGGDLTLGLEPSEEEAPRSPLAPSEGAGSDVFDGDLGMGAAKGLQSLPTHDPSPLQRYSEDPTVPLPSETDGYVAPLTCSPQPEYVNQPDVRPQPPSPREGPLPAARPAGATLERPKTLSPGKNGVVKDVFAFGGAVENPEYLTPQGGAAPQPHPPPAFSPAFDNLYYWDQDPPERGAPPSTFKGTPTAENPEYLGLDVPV
A further test concerns the target KDR (Homo sapiens, UniProt P35968). Briefly: Kinase inhibition KDR. It is filed as biochemical.
In another test the target is PDGFR-β (Homo sapiens, UniProt P09619). Briefly: Kinase inhibition PDGFR-β. It is filed as biochemical.
Another test deals with c-Kit (Homo sapiens, UniProt P10721). Briefly: Kinase inhibition c-Kit. The class given is biochemical.
c-Kit, sequence (P10721 26-976): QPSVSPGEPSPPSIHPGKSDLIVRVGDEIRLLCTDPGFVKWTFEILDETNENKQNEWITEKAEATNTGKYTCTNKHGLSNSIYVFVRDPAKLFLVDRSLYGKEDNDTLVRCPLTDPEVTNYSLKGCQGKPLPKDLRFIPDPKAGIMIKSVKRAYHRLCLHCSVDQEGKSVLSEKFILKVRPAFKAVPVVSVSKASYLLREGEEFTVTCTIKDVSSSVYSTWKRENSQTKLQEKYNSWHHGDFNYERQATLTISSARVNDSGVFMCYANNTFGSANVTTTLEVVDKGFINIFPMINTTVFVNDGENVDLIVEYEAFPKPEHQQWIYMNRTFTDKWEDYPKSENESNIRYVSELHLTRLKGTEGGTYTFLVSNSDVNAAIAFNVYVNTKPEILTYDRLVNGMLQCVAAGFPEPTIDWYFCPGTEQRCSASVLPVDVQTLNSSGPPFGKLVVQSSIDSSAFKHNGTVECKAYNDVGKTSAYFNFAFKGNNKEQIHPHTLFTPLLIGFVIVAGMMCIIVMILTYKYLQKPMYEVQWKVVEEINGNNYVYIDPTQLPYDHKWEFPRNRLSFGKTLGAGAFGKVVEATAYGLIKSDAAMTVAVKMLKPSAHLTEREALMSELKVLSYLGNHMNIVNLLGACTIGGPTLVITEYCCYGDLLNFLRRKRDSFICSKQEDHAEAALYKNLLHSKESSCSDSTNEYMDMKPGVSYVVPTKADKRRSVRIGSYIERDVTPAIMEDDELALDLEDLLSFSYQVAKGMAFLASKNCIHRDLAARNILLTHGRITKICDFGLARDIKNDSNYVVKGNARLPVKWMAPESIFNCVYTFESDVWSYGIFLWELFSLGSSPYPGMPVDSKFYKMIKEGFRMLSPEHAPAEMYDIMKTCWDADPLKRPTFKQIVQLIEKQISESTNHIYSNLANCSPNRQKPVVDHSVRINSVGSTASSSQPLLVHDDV
The next test has as its target Flt-4 (Homo sapiens, UniProt P35916). Briefly: Kinase inhibition Flt-4. It is filed as biochemical.
Another test concerns the target Flt-1 (Homo sapiens, UniProt P17948). Briefly: Kinase inhibition Flt-1. It is filed as biochemical.
A further test addresses Tek (Homo sapiens, UniProt Q02763). Briefly: Kinase inhibition Tek. The class given is biochemical.
The target in another test is c-src (Homo sapiens, UniProt P12931). Briefly: Kinase inhibition c-src. It is filed as biochemical.

Each structure is given as a SMILES string.

c-Abl, sequence (P00519 whole entry): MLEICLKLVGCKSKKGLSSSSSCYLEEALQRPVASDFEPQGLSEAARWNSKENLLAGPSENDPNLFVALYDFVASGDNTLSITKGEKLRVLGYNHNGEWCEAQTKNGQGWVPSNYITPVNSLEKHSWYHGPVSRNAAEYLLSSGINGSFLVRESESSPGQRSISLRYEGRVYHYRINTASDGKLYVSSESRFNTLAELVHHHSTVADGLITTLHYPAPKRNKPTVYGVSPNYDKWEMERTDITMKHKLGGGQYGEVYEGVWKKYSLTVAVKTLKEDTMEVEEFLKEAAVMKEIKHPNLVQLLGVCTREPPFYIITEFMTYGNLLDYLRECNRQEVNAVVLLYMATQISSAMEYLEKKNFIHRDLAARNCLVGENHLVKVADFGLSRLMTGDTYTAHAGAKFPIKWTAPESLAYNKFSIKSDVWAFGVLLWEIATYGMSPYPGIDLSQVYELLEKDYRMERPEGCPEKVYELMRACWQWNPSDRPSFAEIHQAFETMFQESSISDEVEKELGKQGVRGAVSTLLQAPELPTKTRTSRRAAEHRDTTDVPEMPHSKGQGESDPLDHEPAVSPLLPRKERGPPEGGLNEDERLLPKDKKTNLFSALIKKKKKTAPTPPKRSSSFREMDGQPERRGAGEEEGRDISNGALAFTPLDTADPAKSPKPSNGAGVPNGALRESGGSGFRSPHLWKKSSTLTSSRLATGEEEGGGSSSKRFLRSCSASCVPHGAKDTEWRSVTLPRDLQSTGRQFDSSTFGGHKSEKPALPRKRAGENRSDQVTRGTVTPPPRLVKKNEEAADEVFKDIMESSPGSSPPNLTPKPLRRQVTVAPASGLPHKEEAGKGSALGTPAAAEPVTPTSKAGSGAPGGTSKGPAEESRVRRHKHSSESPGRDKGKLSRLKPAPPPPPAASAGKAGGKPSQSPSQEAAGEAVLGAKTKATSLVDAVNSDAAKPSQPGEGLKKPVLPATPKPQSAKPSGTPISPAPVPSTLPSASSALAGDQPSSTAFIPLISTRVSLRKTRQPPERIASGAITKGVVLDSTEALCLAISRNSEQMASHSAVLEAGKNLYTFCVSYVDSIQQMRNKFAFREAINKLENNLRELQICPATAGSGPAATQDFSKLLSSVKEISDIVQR
Flt-1, sequence (P17948 27-1338, species assumed): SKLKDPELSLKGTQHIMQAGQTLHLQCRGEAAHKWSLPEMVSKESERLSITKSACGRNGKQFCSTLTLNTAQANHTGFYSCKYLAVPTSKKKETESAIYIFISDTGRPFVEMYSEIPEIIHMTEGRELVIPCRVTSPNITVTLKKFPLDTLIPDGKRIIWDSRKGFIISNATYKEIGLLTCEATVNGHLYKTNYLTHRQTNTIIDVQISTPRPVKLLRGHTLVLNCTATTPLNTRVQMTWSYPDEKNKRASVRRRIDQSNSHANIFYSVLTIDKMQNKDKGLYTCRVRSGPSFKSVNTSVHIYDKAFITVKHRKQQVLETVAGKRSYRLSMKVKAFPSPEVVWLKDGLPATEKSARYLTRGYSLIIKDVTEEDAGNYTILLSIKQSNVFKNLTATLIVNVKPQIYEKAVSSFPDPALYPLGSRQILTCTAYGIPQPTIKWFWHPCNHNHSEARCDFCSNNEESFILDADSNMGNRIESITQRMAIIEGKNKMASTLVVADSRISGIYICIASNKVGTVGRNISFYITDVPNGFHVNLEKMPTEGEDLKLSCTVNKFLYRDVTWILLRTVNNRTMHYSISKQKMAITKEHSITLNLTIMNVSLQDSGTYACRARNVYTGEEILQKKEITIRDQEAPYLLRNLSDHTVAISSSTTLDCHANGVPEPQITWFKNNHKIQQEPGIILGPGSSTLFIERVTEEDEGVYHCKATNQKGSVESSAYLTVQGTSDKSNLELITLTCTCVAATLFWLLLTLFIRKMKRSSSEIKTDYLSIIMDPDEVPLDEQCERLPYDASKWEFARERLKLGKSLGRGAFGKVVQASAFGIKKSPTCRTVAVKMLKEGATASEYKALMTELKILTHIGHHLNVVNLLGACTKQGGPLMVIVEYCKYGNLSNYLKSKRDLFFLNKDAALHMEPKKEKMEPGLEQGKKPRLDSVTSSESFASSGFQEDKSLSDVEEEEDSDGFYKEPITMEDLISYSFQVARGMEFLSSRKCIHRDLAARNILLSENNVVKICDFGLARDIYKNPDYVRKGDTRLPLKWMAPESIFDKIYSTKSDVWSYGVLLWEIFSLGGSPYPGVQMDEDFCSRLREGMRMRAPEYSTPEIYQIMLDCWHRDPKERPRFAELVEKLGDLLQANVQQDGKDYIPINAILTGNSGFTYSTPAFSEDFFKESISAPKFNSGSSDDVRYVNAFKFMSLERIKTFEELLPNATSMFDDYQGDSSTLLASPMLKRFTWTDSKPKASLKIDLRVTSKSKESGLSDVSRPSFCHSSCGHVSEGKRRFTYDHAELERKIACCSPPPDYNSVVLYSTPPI

Regarding `Nc1cccc(-c2cc3c(Oc4cccc(O)c4)ncnc3[nH]2)c1` [Example 1, 3-[6-(3-Amino-phenyl)-7H-pyrrolo[2,3-d]pyrimidin-4-yloxy]-phenol], in the test with P19 cells, the “differentiation of P19 cells into glial and muscle cells” value is given as “not detected”. The “nestin immunostaining of the remaining cells (neuronal progenitor cells)” value in the test on P19 cells is “immunostained positively for nestin”. Moreover, the “cells differentiating specifically into neuronal lineages” value with P19 cells (monolayers of P19 cells, neuronal morphology and immunostaining with neuronal specific markers) is given as 30-40%. Besides, the “increase in β-catenin induced TCF/LEF reporter activity” value in test [1] is given as “eleven”. The inhibition at 10 µM on c-Abl (10 μM), on HER-1, against HER-2 (10 μM), against KDR, against PDGFR-β and against c-Kit (10 μM) was 100% in each case. The inhibition at 10 µM against Flt-4, at Flt-1, against Tek and at c-src was 100% throughout. Besides, the IC50 at c-Abl (read-out: IC50 against c-Abl) was 4.5 nM; on HER-2 (read-out: IC50 against HER-2) it was 30 nM; on c-Kit (read-out: IC50 against c-Kit), 20 nM.

What is called inhibition is the change of the read-out against control, counted positive when it falls. Low values mean a response near the control, high ones a response far below the control. One may read the IC50 as the concentration needed to halve the response being measured.
